From ChEMBL document CHEMBL3044907, “Sensitivity of Fusarium verticillioides isolates from rice to a novel cyanoacrylate fungicide” (Crop Prot, 2012)
Values after ≈ are worked out from the molar mass of the structure shown.

Assays:
Fusarium verticillioides [1] = assay: (§1) Fungicidal activity against Fusarium verticilliodes isolate JS08 in rice seeds harvested from bakane diseased plants assessed as number of seedlings abnormally elongated or exhibiting symptoms of damping-off at 12.5 ug/ml at 30 degC incubated for 72 hr measured after 3 days under greenhouse trials (reference value: 13.0%); assay type: functional
Fusarium verticillioides [2] = assay: as §1, with “JS02” for “JS08”, “24.9%)” for “13.0%)”; assay type: functional
Fusarium verticillioides [3] = assay: as §1, with “N05” for “JS08”, “6.25” for “12.5”, “6.2%)” for “13.0%)”; assay type: functional
Fusarium verticillioides [4] = assay: as §1, with “YZ22” for “JS08”, “22.5%)” for “13.0%)”; assay type: functional
Fusarium verticillioides [5] = assay: as §1, with “JS09” for “JS08”, “25” for “12.5”, “32.6%)” for “13.0%)”; assay type: functional
Fusarium verticillioides [6] = assay: as §1, with “YZ03” for “JS08”, “6.25” for “12.5”, “21.3%)” for “13.0%)”; assay type: functional
Fusarium verticillioides [7] = assay: as §1, with “N06” for “JS08”, “6.25” for “12.5”, “9.6%)” for “13.0%)”; assay type: functional
Fusarium verticillioides [8] = assay: as §1, with “YZ26” for “JS08”, “6.25” for “12.5”, “49.3%)” for “13.0%)”; assay type: functional
Fusarium verticillioides [9] = assay: as §1, with “JS07” for “JS08”, “25” for “12.5”, “33.8%)” for “13.0%)”; assay type: functional
Fusarium verticillioides [10] = assay: as §1, with “YZ05” for “JS08”, “6.25” for “12.5”, “33.3%)” for “13.0%)”; assay type: functional
Fusarium verticillioides [11] = assay: as §1, with “JS03” for “JS08”, “6.25” for “12.5”, “15.8%)” for “13.0%)”; assay type: functional
Fusarium verticillioides [12] = assay: as §1, with “N05” for “JS08”, “25” for “12.5”, “6.2%)” for “13.0%)”; assay type: functional
Fusarium verticillioides [13] = assay: as §1, with “YZ10” for “JS08”, “25” for “12.5”, “49.2%)” for “13.0%)”; assay type: functional
Fusarium verticillioides [14] = assay: as §1, with “JS04” for “JS08”, “25” for “12.5”, “16.2%)” for “13.0%)”; assay type: functional
Fusarium verticillioides [15] = assay: as §1, with “YZ08” for “JS08”, “25” for “12.5”, “19.8%)” for “13.0%)”; assay type: functional
Fusarium verticillioides [16] = assay: as §1, with “N01” for “JS08”, “6.25” for “12.5”, “27.4%)” for “13.0%)”; assay type: functional
Fusarium verticillioides [17] = assay: as §1, with “YZ03” for “JS08”, “21.3%)” for “13.0%)”; assay type: functional
Fusarium verticillioides [18] = assay: as §1, with “JS06” for “JS08”, “8.33” for “12.5”, “25.2%)” for “13.0%)”; assay type: functional
Fusarium verticillioides [19] = assay: as §1, with “JS05” for “JS08”, “6.25” for “12.5”, “36.4%)” for “13.0%)”; assay type: functional
Fusarium verticillioides [20] = assay: as §1, with “N04” for “JS08”, “6.25” for “12.5”, “14.5%)” for “13.0%)”; assay type: functional
Fusarium verticillioides [21] = assay: as §1, with “YZ26” for “JS08”, “25” for “12.5”, “49.3%)” for “13.0%)”; assay type: functional
Fusarium verticillioides [22] = assay: as §1, with “YZ12” for “JS08”, “45.8%)” for “13.0%)”; assay type: functional
Fusarium verticillioides [23] = assay: as §1, with “YZ13” for “JS08”, “25” for “12.5”, “26.8%)” for “13.0%)”; assay type: functional
Fusarium verticillioides [24] = assay: as §1, with “YZ02” for “JS08”, “29.8%)” for “13.0%)”; assay type: functional
Fusarium verticillioides [25] = assay: as §1, with “JS01” for “JS08”, “6.25” for “12.5”, “32.5%)” for “13.0%)”; assay type: functional
Fusarium verticillioides [26] = assay: as §1, with “YZ06” for “JS08”, “25” for “12.5”, “45.3%)” for “13.0%)”; assay type: functional
Fusarium verticillioides [27] = assay: as §1, with “YZ10” for “JS08”, “6.25” for “12.5”, “49.2%)” for “13.0%)”; assay type: functional
Fusarium verticillioides [28] = assay: as §1, with “JS07” for “JS08”, “33.8%)” for “13.0%)”; assay type: functional
Fusarium verticillioides [29] = assay: as §1, with “JS05” for “JS08”, “36.4%)” for “13.0%)”; assay type: functional
Fusarium verticillioides [30] = assay: as §1, with “YZ13” for “JS08”, “26.8%)” for “13.0%)”; assay type: functional
Fusarium verticillioides [31] = assay: Fungicidal activity against Fusarium verticilliodes in rice seeds harvested from bakane diseased plants assessed as mycelial growth inhibition at 25 degC after 3 to 5 days; assay type: functional, organism-based
Fusarium verticillioides [32] = assay: as §1, with “YZ22” for “JS08”, “8.33” for “12.5”, “22.5%)” for “13.0%)”; assay type: functional
Fusarium verticillioides [33] = assay: as §1, with “6.25” for “12.5”; assay type: functional
Fusarium verticillioides [34] = assay: as §1, with “25” for “12.5”; assay type: functional
Fusarium verticillioides [35] = assay: as §1, with “YZ07” for “JS08”, “43.2%)” for “13.0%)”; assay type: functional
Fusarium verticillioides [36] = assay: as §1, with “N06” for “JS08”, “9.6%)” for “13.0%)”; assay type: functional
Fusarium verticillioides [37] = assay: as §1, with “YZ12” for “JS08”, “8.33” for “12.5”, “45.8%)” for “13.0%)”; assay type: functional

CCOC(=O)/C(C#N)=C(/N)c1ccccc1
Activity (Fusarium verticillioides [1]): 0% | Activity (Fusarium verticillioides [2]): 0% | Activity (Fusarium verticillioides [3]): 0.4% | Activity (Fusarium verticillioides [4]): 0.5% | Activity (Fusarium verticillioides [5]): 0% | Activity (Fusarium verticillioides [6]): 2% | Activity (Fusarium verticillioides [7]): 0.8% | Activity (Fusarium verticillioides [8]): 4.1% | Activity (Fusarium verticillioides [9]): 0% | Activity (Fusarium verticillioides [10]): 0.5% | Activity (Fusarium verticillioides [11]): 1.4% | Activity (Fusarium verticillioides [12]): 0% | Activity (Fusarium verticillioides [13]): 0% | Activity (Fusarium verticillioides [14]): 0% | Activity (Fusarium verticillioides [15]): 0% | Activity (Fusarium verticillioides [16]): 0.8% | Activity (Fusarium verticillioides [17]): 0% | Activity (Fusarium verticillioides [18]): 0% | Activity (Fusarium verticillioides [19]): 2.8% | Activity (Fusarium verticillioides [20]): 1.8% | Activity (Fusarium verticillioides [21]): 0.2% | Activity (Fusarium verticillioides [22]): 0% | Activity (Fusarium verticillioides [23]): 0% | Activity (Fusarium verticillioides [24]): 0% | Activity (Fusarium verticillioides [25]): 1.6% | Activity (Fusarium verticillioides [26]): 0% | Activity (Fusarium verticillioides [27]): 3.8% | Activity (Fusarium verticillioides [28]): 0% | Activity (Fusarium verticillioides [29]): 0% | Activity (Fusarium verticillioides [30]): 0% | EC50 (Fusarium verticillioides [31]): 0.379 µg/mL (≈ 1.75 µM) | Activity (Fusarium verticillioides [32]): 0.5% | Activity (Fusarium verticillioides [33]): 3.6% | Activity (Fusarium verticillioides [34]): 0% | Activity (Fusarium verticillioides [35]): 0% | Activity (Fusarium verticillioides [36]): 0% | Activity (Fusarium verticillioides [37]): 1.4%
